Assay results reported in patent publication US6730660B2, “Peritoneal dialysis solutions with polypeptides” (Baxter International Inc., priority 1992, dated 2004).

System: albino guinea pigs
Test: Dermal sensitization study: intradermal induction with Freund's Complete Adjuvant, then intradermal challenge
Format: in vivo, guinea pig
Method: The study was conducted using 10 test animals and four naive control animals per test or positive control material. On Day 1, animals in each test group received duplicate 0.05-mL intradermal injections of a 1:1 ratio of Freund's Complete Adjuvant in sterile water, the respective test material, and a 1:1 ratio of the respective test material in Freund's Complete Adjuvant.
For the positive control group, the animals received duplicate 0.05-mL intradermal injections of a 1:1 ratio of Freund's Complete Adjuvant in sterile water, a 5% w/v suspension of sulfathiazole in sterile water, and a 5% w/v suspension of sulfathiazole in Freund's Complete Adjuvant.
On day 7, animals in all three test groups and the positive control group were pretreated with 10% w/w sodium lauryl sulfate in petrolatum applied topically at the shaved area of the Day 1 intradermal injections. On Day 8, the respective test or positive control material was injected intradermally at a volume of 0.05 mL into two separate areas located just posterior to the initial intradermal injections.
All the test materials were administered undiluted and the positive control was administered as a 5% w/v suspension of sulfathiazole in sterile water. All naive control animals were not treated during the induction phase.
Two weeks following the Day 8 intradermal injections, all animals in the respective test and naive control groups received a challenge intradermal injection. The respective undiluted test material was injected intradermally at a volume of 0.05-mL into one site on the shaved right flank of each respective animal. The positive control animals were treated with a 1% w/v suspension of sulfathiazole in sterile 0.9% saline. The sites were examined for erythema and edema at 24, 48, and 72 hours following injection.
Young adult albino guinea pigs, Hra:(DH)SPF, were procured, maintained individually in screen-bottom stainless steel cages in temperature- and humidity-controlled rooms, provided continuous access to Certified Guinea Pig Chow® 5026, Purina Mills, Inc., and water and held for an acclimation period of at least 7 days. If variations from the prescribed environmental conditions existed, they were documented and considered to have no effect on the study outcome. No contaminants were expected to have been present in the feed or water which would have interfered with or affected the results of the study.
Intradermal Injections (Day 1) A 4-cm×6-cm area was clipped along the midline over the shoulder region of each animal in the test and positive control groups. Six intradermal injections were made within the boundaries of a 2-cm×4-cm area, one row of three injections on each side of the midline as follows: […]

Nc1ccc(S(=O)(=O)Nc2nccs2)cc1 [Sulfathiazole]
dermal reactions at challenge (Day 22 intradermal challenge 0.05 mL, examined at 24, 48 and 72 hours): Dermal sensitization responses were observed | body weight loss of one animal (animal E17221, Group 11, third week of the study): 76 g | Classification (sensitizer) (guinea pig, after intradermal challenge): Sensitizer | # of Positive Reactions/# in Group (test or positive control groups, after intradermal challenge): 9/10
